Test results taken from patent publication US20260000351A1, “NON-INVASIVE METHODS OF MEASURING THE DEGREE OF CELLULAR ENERGY METABOLISM” (AMAZON TECHNOLOGIES, INC., priority 2023, published 2026).

Legend:
Format in all cases: cell-based
Jurkat T cells [1] = test: Radio frequency monitoring device measurement at 64 MHz in Jurkat T cell suspensions (Example 5); settings: for net change in radio frequency magnitude (plain medium subtracted as background): 64 MHz
Method: The degree of cellular energy metabolism was monitored by radio frequency in Jurkat T cell suspensions to compare to direct intracellular ATP measurement of Example 4. Jurkat T cell suspensions were maintained as in Example 4. A radio frequency monitoring device was placed in the cell culture and monitored at 64 MHz frequency as a function of time. Cells were stimulated by addition of (a) D-glucose (180 mg/dl final concentration in DMEM), (b) 2-deoxy-D-glucose (2DG, 180 mg/dl final concentration in DMEM), (c) D-glucose (180 mg/dl final concentration) and BAY-876 (a glucose transporter 1 inhibitor, 5 μM final concentration), and (d) DMEM with low D-glucose (5.5 mM, 100 mg/dl, ‘plain medium’). All stimulations were conducted with the same volume of liquid.

Jurkat T cells [2] = test: Radio frequency sensor device measurement of cellular energy metabolism in Jurkat T cell suspension (Example 1); settings: for radio frequency peak in magnitude at 64 MHz: final concentration 200 mg/dl in low D-glucose DMEM, about 8 h
Method: Jurkat T cells were obtained from American Type Culture Collection (ATCC) (#TIB-152) and maintained in high D-Glucose Dulbecco's Modified Eagle Medium (DMEM) (THERMO FISHER SCIENTIFIC INC., #10565042, 17.5 mM/315 mg/dl D-glucose) supplemented with 10% fetal bovine serum (FBS, THERMO FISHER SCIENTIFIC INC., #16140071), penicillin/streptomycin (Pen/Strep), beta-Mercaptoethanol (b-ME) in a 37° C. humidified incubator, 5% CO2. At time point 0:00 (hr.: min.), Jurkat T cells (3×10^9) were suspended in three separate solutions of low D-glucose DMEM (THERMO FISHER SCIENTIFIC INC., #10565042, 5.5 mM (100 mg/dl D-glucose) supplemented with fetal bovine serum (10% v/v, THERMO FISHER SCIENTIFIC INC. #16140071), penicillin/streptomycin (Pen/Strep), beta-mercaptoethanol (20 ml of media, 5×10^7 cells per mL each) in tissue culture dishes (10 cm). The cell suspension was placed in an incubator at 37° C. at maximum humidity, carbon dioxide concentration of 5%. Cells were mixed continuously on an orbital shaker (60 rpm). Following 60 minutes of incubation for equilibration, a sensor device of this disclosure was placed in each solution. To the resulting solutions were added 200 μl of media containing 100× D-glucose (e.g., to a final concentration of 200 mg/dl), control media (identical media, but containing low D-glucose (5.5 mM, 100 mg/dl)), and media containing 100× 2-deoxy-D-glucose (identical media, but replacing D-glucose with 2-deoxy-D-glucose at a final concentration of e.g., 200 mg/dl). The radio frequency was detected at 64MHz with the sensor device over the course of approximately 8 h.

Jurkat T cells [3] = test: Luciferase-based assay of intracellular ATP concentration (CELLTITER-GLO 2.0); settings: D-glucose 15.5 mM (280 mg/dl final) versus low D-glucose 5.5 mM
Method: Intracellular ATP concentrations were assessed using a luciferase-based assay to determine the rate of ATP production following addition of glucose. Jurkat T cells (1×10^7 cells per well in low D-glucose DMEM (100 μl, 5.5 mM, 100 mg/dl D-glucose)) were aliquoted into flat-bottom 96-well plates. Cells were stimulated with DMEM either containing D-glucose (15.5 mM, 280 mg/dl final solution) or low D-glucose (5.5 mM, 100 mg/dl), an effective difference of 10 mM (180 mg/dl) glucose, at time point 0 min. Cells were quantitatively removed from the incubation plate. An aliquot of cell suspension (50 μl) was transferred onto frozen CELLTITER-GLO® 2.0 (PROMEGA CO.) assay reagent on dry ice. The resulting mixture was thawed, and the ATP concentration measured via light emission in a 96-well plate-compatible luminometer. The resulting curve of luciferase activity in relative luminescence units (RLUs) over time (min. following stimulation) is shown in FIG. 7. […] Glucose transport is rapid as indicated by the rapid increase of ATP concentration following addition of D-glucose.

[4] = 180 mg/dl final concentration in DMEM

Compound	magnitude at 64 MHz over time (curve shape) (Jurkat T cells [1]; [4])	net change in radio frequency magnitude (plain medium subtracted as background) (Jurkat T cells [1]; [4])	radio frequency peak in magnitude at 64 MHz (Jurkat T cells [2])	magnitude at 64 MHz over time (curve shape) (Jurkat T cells [1]; BAY-876 5 μM final with D-glucose 180 mg/dl final)	difference in luminescence (net ATP concentration) over time (Jurkat T cells [3])	time of apex of radio frequency peak (Jurkat T cells [2]; D-glucose 200 mg/dl final)
O=CC[C@@H](O)[C@H](O)[C@H](O)CO [2-deoxy-D-glucose]	an initial peak, similar to D-glucose, the magnitude at 64 MHz quickly adopts a similar linear decline	only an initial net increase	no detectable peak			
Cc1c(NC(=O)c2cc(C(N)=O)nc3cc(F)ccc23)c(C(F)(F)F)nn1Cc1ccc(C#N)cc1 [BAY-876]				a smooth decline becoming linear over time		
O=C[C@H](O)[C@@H](O)[C@H](O)[C@H](O)CO [D-glucose]	both a peak shortly after addition of stimulus, and a more gradual decline	an initial net increase in magnitude followed by a slow net decrease	a broad peak was observed		an increase in net ATP concentration followed by a slower decrease in net ATP concentration	approximately 4 h
